Assay [1] concerns the target Beta Secretase enzyme (BACE1) (Homo sapiens, UniProt P56817). Put plainly: In vitro enzymatic BACE FRET assay. Format: biochemical. The following applies: read-out: BACE1 FRET assay IC50. A digest of the protocol: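 BACE1 cleavage of a 50 nM fluorophore/quencher peptide FRET substrate ran for one hour in 0.05 M acetate pH 4.2, 10% DMSO, 100 uM genapol. Tris buffer raised pH to neutrality to stop the reaction before fluorescence was read (excitation 488 nm, […]).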

Assay [2] relates to Aβ40 in conditioned medium of cells stably expressing Amyloid Precursor Protein (APP). Put plainly: In vitro BACE cell-based assay (HEK cell assay), Aβ40 sandwich ELISA. As to conditions: Homo sapiens, HEK293. A digest of the protocol:
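APP-stably expressing cells (40K/well, grown 24 h in DMEM/10% FBS) were treated 24 h with compounds in 10-point dose response starting at 100 μM or 10 μM, 0.1% DMSO final. Secreted Aβ40 was measured by sandwich ELISA (pAb40 capture, biotinylated 6E10 detection, europium time-resolved fluorescence); IC50 from percent inhibition.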

The next assay addresses T1, Cathepsin D (Cat D) (Homo sapiens, UniProt P07339).
T1 construct: Recombinant Cat D was expressed in CHO cells; made in house; host or cells: CHO cells
The assay can be described thus: In vitro enzymatic Cathepsin D (Cat D) FRET assay. Format: biochemical. The following applies: read-out: CatD IC50. A digest of the protocol:
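Recombinant Cat D expressed in CHO cells, used at 9 nM and pre-incubated one hour with serially diluted inhibitor in DMSO. Peptide substrate carries a fluorophore and quencher flanking the cleavage site; reaction stopped with Tris buffer raising pH to neutrality, then fluorescence read.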

Read-outs that look alike come from different tables or passages of the source. Where only a bound is given, the exact number is not on record here.

Beta Secretase enzyme (BACE1), sequence (P56817 46-501): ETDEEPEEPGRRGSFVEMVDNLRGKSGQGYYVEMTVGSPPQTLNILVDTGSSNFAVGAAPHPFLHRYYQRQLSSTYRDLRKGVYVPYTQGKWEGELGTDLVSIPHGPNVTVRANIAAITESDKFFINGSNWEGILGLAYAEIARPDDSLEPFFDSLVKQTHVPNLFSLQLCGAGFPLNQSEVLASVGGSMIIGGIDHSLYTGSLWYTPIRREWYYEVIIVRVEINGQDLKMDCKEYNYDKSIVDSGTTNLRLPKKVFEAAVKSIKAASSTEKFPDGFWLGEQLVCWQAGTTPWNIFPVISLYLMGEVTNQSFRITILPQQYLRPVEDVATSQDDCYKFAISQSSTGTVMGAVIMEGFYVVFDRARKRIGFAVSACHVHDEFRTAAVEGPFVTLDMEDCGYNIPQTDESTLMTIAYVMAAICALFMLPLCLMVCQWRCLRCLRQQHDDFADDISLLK
T1 sequence (P07339 65-412, species assumed): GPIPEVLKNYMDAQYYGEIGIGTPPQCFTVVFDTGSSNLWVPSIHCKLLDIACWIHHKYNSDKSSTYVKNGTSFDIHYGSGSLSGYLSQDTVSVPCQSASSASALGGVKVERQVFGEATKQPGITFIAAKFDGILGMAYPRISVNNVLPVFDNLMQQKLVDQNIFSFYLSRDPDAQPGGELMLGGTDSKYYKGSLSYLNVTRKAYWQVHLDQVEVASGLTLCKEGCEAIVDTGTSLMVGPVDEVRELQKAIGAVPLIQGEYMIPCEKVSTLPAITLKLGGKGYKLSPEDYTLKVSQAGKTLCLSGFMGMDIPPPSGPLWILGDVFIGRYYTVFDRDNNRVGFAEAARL

The IC50 is the midpoint of a concentration-inhibition curve. For the molecule `CC1(C)C(N)=N[C@](C)(c2cc(NC(=O)c3ccc(C(F)F)cn3)cnc2F)CS1(=O)=O` [Example 404, N-(5-((3R)-5-amino-3,6,6-trimethyl-1,1-dioxido-3,6-dihydro-2H-1,4-thiazin-3-yl)-6-fluoro-3-pyridinyl)-5-(difluoromethyl)-2-pyridinecarboxamide], the figures for the 50% inhibitory concentration (IC50) (in assay [1]; in assay [2]; at Cathepsin D (Cat D)) were 0.011 µM, 0.0119 µM and 247 µM, respectively.
For the molecule `CC1(C)C(N)=N[C@](CF)(c2cc(NC(=O)c3cnc(OCC(F)(F)F)cn3)ccc2F)CS1(=O)=O` [Example 405, N-(3-((3S)-5-amino-3-(fluoromethyl)-6,6-dimethyl-1,1-dioxido-3,6-dihydro-2H-1,4-thiazin-3-yl)-4-fluorophenyl)-5-(2,2,2-trifluoroethoxy)-2-pyrazinecarboxamide], the IC50 was 0.0006 µM in assay [1], 0.027 µM in assay [2] and 576 µM on Cathepsin D (Cat D).
As for `CC1(C)C(N)=N[C@](CF)(c2cc(NC(=O)c3ccc(C#N)cn3)ccc2F)CS1(=O)=O` [Example 406, N-(3-((3S)-5-amino-3-(fluoromethyl)-6,6-dimethyl-1,1-dioxido-3,6-dihydro-2H-1,4-thiazin-3-yl)-4-fluorophenyl)-5-cyano-2-pyridinecarboxamide], the results for the half-inhibitory concentration (IC50) (in assay [1]; in assay [2]; on Cathepsin D (Cat D)) were 0.00054 µM, 0.0143 µM and greater than 400 µM, respectively.
Taken in the same sequence, the figures for `C=C(C)c1cc(Cl)cnc1C(=O)Nc1ccc(F)c([C@]2(CF)CS(=O)(=O)C(C)(C)C(N)=N2)c1` [Example 407, N-(3-((3S)-5-amino-3-(fluoromethyl)-6,6-dimethyl-1,1-dioxido-3,6-dihydro-2H-1,4-thiazin-3-yl)-4-fluorophenyl)-5-chloro-3-(1-methylethenyl)-2-pyridinecarboxamide] were 0.00354 µM, 0.057 µM and 440 µM.
For the molecule `Cc1cc(Cl)cnc1C(=O)Nc1ccc(F)c([C@]2(CF)CS(=O)(=O)C(C)(C)C(N)=N2)c1` [Example 408, N-(3-((3S)-5-amino-3-(fluoromethyl)-6,6-dimethyl-1,1-dioxido-3,6-dihydro-2H-1,4-thiazin-3-yl)-4-fluorophenyl)-5-chloro-3-methyl-2-pyridinecarboxamide], the figures for the IC50 (in assay [1]; in assay [2]; at Cathepsin D (Cat D)) were 0.0004 µM, 0.0232 µM and 136 µM, respectively.
On to `CC1(C)C(N)=N[C@](CF)(c2cc(NC(=O)c3ncc(Cl)cc3F)ccc2F)CS1(=O)=O` [Example 409, N-(3-((3S)-5-amino-3-(fluoromethyl)-6,6-dimethyl-1,1-dioxido-3,6-dihydro-2H-1,4-thiazin-3-yl)-4-fluorophenyl)-5-chloro-3-fluoro-2-pyridinecarboxamide], for which the IC50 was 0.0006 µM in assay [1], 0.0037 µM in assay [2] and 363 µM at Cathepsin D (Cat D).
On to `Cc1cc(OC(F)F)cnc1C(=O)Nc1ccc(F)c([C@@]2(CF)CS(=O)(=O)C3(CCC3)C(N)=N2)c1` [Example 411, N-(3-((7R)-9-amino-7-(fluoromethyl)-5,5-dioxido-5-thia-8-azaspiro[3.5]non-8-en-7-yl)-4-fluorophenyl)-5-(difluoromethoxy)-3-methyl-2-pyridinecarboxamide], for which the IC50 is 3.51 µM in assay [1], greater than 15.6 µM in assay [2] and 514 µM on Cathepsin D (Cat D).
Turning to `Cc1cc(OC(F)F)cnc1C(=O)Nc1ccc(F)c([C@]2(CF)CS(=O)(=O)C3(CCC3)C(N)=N2)c1` [Example 412, N-(3-((7S)-9-amino-7-(fluoromethyl)-5,5-dioxido-5-thia-8-azaspiro[3.5]non-8-en-7-yl)-4-fluorophenyl)-5-(difluoromethoxy)-3-methyl-2-pyridinecarboxamide], the IC50 in assay [1] is 0.00063 µM; in assay [2], 0.0082 µM; on Cathepsin D (Cat D) it was 78.9 µM.
Turning to `CC1(C)C(N)=N[C@](C)(c2cc(Nc3ccc4c(c3)OC(F)(F)O4)cnc2F)CS1(=O)=O` [Example 414, (5R)-5-(5-((2,2-difluoro-1,3-benzodioxol-5-yl)amino)-2-fluoro-3-pyridinyl)-2,2,5-trimethyl-5,6-dihydro-2H-1,4-thiazin-3-amine 1,1-dioxide], the half-inhibitory concentration (IC50) in assay [1] came to 3.2 µM; in assay [2], 2.53 µM; at Cathepsin D (Cat D), 33.9 µM.
Turning to `C[C@@]1(c2cc(N)cnc2F)CS(=O)(=O)C2(CCC2)C(N)=N1` [Example 415, (7R)-7-(5-amino-2-fluoro-3-pyridinyl)-7-methyl-5-thia-8-azaspiro[3.5]non-8-en-9-amine 5,5-dioxide], the figures for the 50% inhibitory concentration (IC50) (in assay [1]; in assay [2]; at Cathepsin D (Cat D)) were 14.5 µM, greater than 15.6 µM and 104 µM, respectively.
As for `C[C@@]1(c2cc(NC(=O)c3ccc(Cl)cn3)ccc2F)CS(=O)(=O)C2(CCC2)C(N)=N1` [Example 416, N-(3-((7R)-9-amino-7-methyl-5,5-dioxido-5-thia-8-azaspiro[3.5]non-8-en-7-yl)-4-fluorophenyl)-5-chloro-2-pyridinecarboxamide], the IC50 in assay [1] stood at 0.00236 µM; in assay [2] it was 0.0059 µM; at Cathepsin D (Cat D), 59.5 µM.
As for `NC1=N[C@](CF)(c2cc(N)ccc2F)CS(=O)(=O)C12CCC2` [Example 417, (7S)-7-(5-amino-2-fluorophenyl)-7-(fluoromethyl)-5-thia-8-azaspiro[3.5]non-8-en-9-amine 5,5-dioxide], the results for the IC50 (in assay [1]; in assay [2]; on Cathepsin D (Cat D)) were 2.1 µM, 3.65 µM and 69.7 µM, respectively.
On to `NC1=N[C@@](CF)(c2cc(Br)ccc2F)CS(=O)(=O)C12CCC2` [Example 418, (7R)-7-(5-bromo-2-fluorophenyl)-7-(fluoromethyl)-5-thia-8-azaspiro[3.5]non-8-en-9-amine 5,5-dioxide], for which the IC50 was greater than 40 µM in assay [1] (average IC50, enzyme assay); greater than 15.6 µM in assay [2] (average IC50, cell assay); greater than 400 µM at Cathepsin D (Cat D).
Taken in the same sequence, the figures for `CC1(C)C(N)=N[C@](C)(c2cc(Nc3nccc4cc(OCC(F)(F)F)cnc34)ccc2F)CS1(=O)=O` [Example 419, N-(3-((3R)-5-amino-3,6,6-trimethyl-1,1-dioxido-3,6-dihydro-2H-1,4-thiazin-3-yl)-4-fluorophenyl)-3-(2,2,2-trifluoroethoxy)-1,7-naphthyridin-8-amine] were 0.00451 µM, 0.026 µM and 631 µM.
Turning to `CC1(C)C(N)=N[C@](C)(c2cc(Nc3nccc4cc(OCC#N)cnc34)ccc2F)CS1(=O)=O` [Example 420, ((8-((3-((3R)-5-amino-3,6,6-trimethyl-1,1-dioxido-3,6-dihydro-2H-1,4-thiazin-3-yl)-4-fluorophenyl)amino)-1,7-naphthyridin-3-yl)oxy)acetonitrile], the IC50 is 0.00485 µM in assay [1] (average IC50, enzyme assay); 0.0054 µM in assay [2] (average IC50, cell assay); 1260 µM on Cathepsin D (Cat D).
As to `CC1(C)C(N)=N[C@](C)(c2cc(Nc3nccc4cc(OCCF)cnc34)ccc2F)CS1(=O)=O` [Example 421, N-(3-((3R)-5-amino-3,6,6-trimethyl-1,1-dioxido-3,6-dihydro-2H-1,4-thiazin-3-yl)-4-fluorophenyl)-3-(2-fluoroethoxy)-1,7-naphthyridin-8-amine], the 50% inhibitory concentration (IC50) in assay [1] (average IC50, enzyme assay) was 0.031 µM; in assay [2] (average IC50, cell assay), 0.0115 µM; at Cathepsin D (Cat D), 1450 µM.
Regarding `CCOc1cnc2c(Nc3ccc(F)c([C@]4(C)CS(=O)(=O)C(C)(C)C(N)=N4)c3)nccc2c1` [Example 422, N-(3-((3R)-5-amino-3,6,6-trimethyl-1,1-dioxido-3,6-dihydro-2H-1,4-thiazin-3-yl)-4-fluorophenyl)-3-ethoxy-1,7-naphthyridin-8-amine], the IC50 in assay [1] (average IC50, enzyme assay) was 0.0184 µM; in assay [2] (average IC50, cell assay) it was 0.029 µM; at Cathepsin D (Cat D), 958 µM.
Consider `C[C@]1(F)C(N)=N[C@](C)(c2cc(Nc3nccc4nc(C(F)(F)F)cnc34)ccc2F)CS1(=O)=O` [Example 423, N-(3-((3R,6R)-5-amino-6-fluoro-3,6-dimethyl-1,1-dioxido-3,6-dihydro-2H-1,4-thiazin-3-yl)-4-fluorophenyl)-2-(trifluoromethyl)pyrido[3,4-b]pyrazin-5-amine], for which the IC50 in assay [1] (average IC50, enzyme assay) was 0.0013 µM; in assay [2] (average IC50, cell assay), 0.735 µM; at Cathepsin D (Cat D), greater than 133 µM.
As for `COc1ncc(NC(=O)c2ccccn2)cc1[C@]1(C)CS(=O)(=O)C(C)(C)C(N)=N1` [Example 424, N-(5-((3R)-5-amino-3,6,6-trimethyl-1,1-dioxido-3,6-dihydro-2H-1,4-thiazin-3-yl)-6-methoxy-3-pyridinyl)-2-pyridinecarboxamide], the half-maximal inhibitory concentration (IC50) in assay [1] (average IC50, enzyme assay) was found to be 0.298 µM; in assay [2] (average IC50, cell assay), 0.131 µM; at Cathepsin D (Cat D) it was 567 µM.
With `CC1(C)C(N)=N[C@](CF)(c2cc(Nc3ncc(F)c4cc(OCC5CC5)cnc34)ccc2F)CS1(=O)=O` [Example 431, N-(3-((3S)-5-amino-3-(fluoromethyl)-6,6-dimethyl-1,1-dioxido-3,6-dihydro-2H-1,4-thiazin-3-yl)-4-fluorophenyl)-3-(cyclopropylmethoxy)-5-fluoro-1,7-naphthyridin-8-amine], the concentration for half-maximal inhibition (IC50) in assay [1] (average IC50, enzyme assay) came to 0.0012 µM; in assay [2] (average IC50, cell assay), 0.1 µM; on Cathepsin D (Cat D) it was 476 µM.
On to `CC1(C)C(N)=N[C@](CF)(c2cc(Nc3ncc(F)c4cc(OCC(F)(F)F)cnc34)ccc2F)CS1(=O)=O` [Example 432, N-(3-((3S)-5-amino-3-(fluoromethyl)-6,6-dimethyl-1,1-dioxido-3,6-dihydro-2H-1,4-thiazin-3-yl)-4-fluorophenyl)-5-fluoro-3-(2,2,2-trifluoroethoxy)-1,7-naphthyridin-8-amine], for which the IC50 was 0.00247 µM in assay [1] (average IC50, enzyme assay); 0.187 µM in assay [2] (average IC50, cell assay); 312 µM on Cathepsin D (Cat D).

(Values after patent publication US20140107109A1, “AMINO-DIHYDROTHIAZINE AND AMINO-DIOXIDO DIHYDROTHIAZINE COMPOUNDS AS BETA-SECRETASE ANTAGONISTS AND METHODS OF USE” (Amgen Inc., priority 2012, published 2014).)
